This note sets out measurements from ChEMBL document CHEMBL1145124, “Identification and prediction of promiscuous aggregating inhibitors among known drugs” (J Med Chem, 2003).

Series [1] deals with T1, Malate dehydrogenase, cytoplasmic (Homo sapiens) (UniProt P40925).
T1 sequence (whole entry): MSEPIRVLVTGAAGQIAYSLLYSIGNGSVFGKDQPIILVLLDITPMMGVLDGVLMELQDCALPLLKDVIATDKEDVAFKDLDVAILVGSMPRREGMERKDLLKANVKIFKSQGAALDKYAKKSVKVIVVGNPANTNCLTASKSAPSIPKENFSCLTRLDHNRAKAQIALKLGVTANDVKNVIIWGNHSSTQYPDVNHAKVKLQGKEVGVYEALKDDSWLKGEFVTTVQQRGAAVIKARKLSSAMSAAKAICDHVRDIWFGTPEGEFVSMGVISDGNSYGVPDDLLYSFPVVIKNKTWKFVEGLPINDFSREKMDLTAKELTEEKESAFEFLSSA
Nature of the series: Inhibition of malate dehydrogenase (MDH) at 400 uM.

The target of series [2] is T2, Chymotrypsin-C (Homo sapiens) (UniProt Q99895).
T2 sequence (whole entry): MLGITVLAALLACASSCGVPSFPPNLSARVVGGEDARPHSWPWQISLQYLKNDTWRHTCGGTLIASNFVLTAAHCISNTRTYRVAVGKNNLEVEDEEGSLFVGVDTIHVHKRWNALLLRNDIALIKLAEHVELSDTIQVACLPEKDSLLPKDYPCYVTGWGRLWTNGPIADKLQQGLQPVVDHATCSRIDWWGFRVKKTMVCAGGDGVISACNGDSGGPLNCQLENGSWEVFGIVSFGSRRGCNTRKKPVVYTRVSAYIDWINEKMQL
The series can be described thus: Inhibition of chymotrypsin at 250 uM. Conditions: unidentified.

The target of series [3] is Beta-lactamase (Escherichia coli K-12) (UniProt P00811). Nature of the series: Inhibition of beta-lactamase at 100 uM.
For series [4], the target named is T3, Malate dehydrogenase, mitochondrial (Sus scrofa) (UniProt P00346).
T3 sequence (whole entry): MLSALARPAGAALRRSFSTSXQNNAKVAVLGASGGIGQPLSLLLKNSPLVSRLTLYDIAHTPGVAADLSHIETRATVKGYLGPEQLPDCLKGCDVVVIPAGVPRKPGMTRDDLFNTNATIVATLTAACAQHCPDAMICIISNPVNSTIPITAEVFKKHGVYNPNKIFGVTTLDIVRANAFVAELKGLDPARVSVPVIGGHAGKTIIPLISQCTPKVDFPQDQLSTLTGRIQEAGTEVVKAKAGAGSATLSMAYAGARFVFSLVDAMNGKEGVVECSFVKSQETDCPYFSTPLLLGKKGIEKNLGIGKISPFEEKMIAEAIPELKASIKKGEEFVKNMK
The series can be described thus: Compound was tested for the inhibition of malate dehydrogenase (MDH) at 200 uM.

For series [5], the target named is T3, Malate dehydrogenase, mitochondrial (Sus scrofa). Nature of the series: Compound was tested for the inhibition of malate dehydrogenase (MDH) at 100 uM.
In series [6] the target is T4, Chymotrypsinogen A (Bos taurus, UniProt P00766). The series can be described thus: Fold decrease in IC50 vs chymotrypsinogen on pre-incubation; increase.
The target of series [7] is Beta-lactamase (Escherichia coli K-12, UniProt P00811). The series can be described thus: Compound was tested for the inhibition of beta-lactamase.
Series [8] deals with T4, Chymotrypsinogen A. The series can be described thus: Compound was tested for the inhibition of Chymotrypsinogen.
In series [9] the target is T3, Malate dehydrogenase, mitochondrial (Sus scrofa). The series can be described thus: Compound was tested for the inhibition of malate dehydrogenase (MDH) at 50 uM.
Series [10] is described as follows: Mean maximal plasma concentration. Type of series: ADME, organism-based.

Chain of Beta-lactamase (Escherichia coli K-12) (P00811 whole entry): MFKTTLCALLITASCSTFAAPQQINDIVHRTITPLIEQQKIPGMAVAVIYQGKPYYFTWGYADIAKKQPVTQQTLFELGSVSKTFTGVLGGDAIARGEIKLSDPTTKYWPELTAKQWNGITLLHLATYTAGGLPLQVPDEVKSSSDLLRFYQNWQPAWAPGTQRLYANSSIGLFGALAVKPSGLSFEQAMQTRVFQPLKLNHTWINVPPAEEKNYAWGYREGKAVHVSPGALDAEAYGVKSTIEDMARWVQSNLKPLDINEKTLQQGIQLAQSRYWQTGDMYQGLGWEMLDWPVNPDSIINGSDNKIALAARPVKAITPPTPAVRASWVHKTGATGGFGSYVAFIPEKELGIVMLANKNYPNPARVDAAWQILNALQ
Chain of Beta-lactamase (P00811 whole entry): as above

As usually defined, the inhibition is the percentage by which the read-out fell short of the control. Low readings indicate a weak effect, high ones a strong effect. Regarding `O=C(O)c1cc(-c2ccc(F)cc2F)ccc1O`, the inhibition in series [1] was less than 5%; in series [2] it was 13%; in series [3], less than 5%.
Regarding `NCCNCCNCCNCCN`, the inhibition in series [1], in [2] and in series [3] was less than 5% in each case.
On to `Nc1ccc(S(=O)(=O)Nc2ncccn2)cc1`, for which the inhibition in series [2], in series [3] and in series [4] was less than 5% throughout.
`Cc1cc2nc3c(=O)[nH]c(=O)nc-3n(C[C@H](O)[C@H](O)[C@H](O)CO)c2cc1C`: the inhibition in [2], in series [5] and in series [3] was less than 5% throughout.
As to `O=C1CCC(N2C(=O)c3ccccc3C2=O)C(=O)N1` (centres undefined), the inhibition in series [1], in series [2] and in [3] was less than 5% throughout.
As to `Cc1cccc(Nc2ccncc2S(=O)(=O)NC(=O)NC(C)C)c1`, the inhibition in series [1] is 14%; in [2] it was less than 5%; in series [3], less than 5%.
The IC50 is the concentration needed to halve the response being measured. A higher IC50 goes with weaker potency. On to `Clc1ccccc1C(c1ccccc1)(c1ccccc1)n1ccnc1` [CLOTRIMAZOLE], for which the values for the half-inhibitory concentration (IC50) result in series [6], in series [7] and in series [8] were “Increase”, 20 µM and 85 µM, respectively.
In the case of `COc1cc(Cc2cnc(N)nc2N)cc(OC)c1OC`, the inhibition in [1], in series [2] and in series [3] was less than 5% in each case.
As to `Nc1ccc(S(=O)(=O)c2ccc(N)cc2)cc1`, the inhibition in [1] was 11%; in series [2], less than 5%; in series [3] it was less than 5%.
`COC(=O)Nc1nc2cc(C(=O)c3ccccc3)ccc2[nH]1`: the inhibition in [1] was 15%; in series [2], less than 5%; in series [3] it was less than 5%.
Turning to `NS(=O)(=O)c1cc(C2(O)NC(=O)c3ccccc32)ccc1Cl` (centres undefined), the inhibition in [2], in series [3] and in [4] was less than 5% in each case.
Regarding `CCC1(c2ccccc2)C(=O)NCNC1=O`, the inhibition was 13% in series [1], less than 5% in [2] and less than 5% in [3].
Turning to `CCN(CC)CC(=O)Nc1c(C)cccc1C`, the inhibition in series [1], in [2] and in [3] was less than 5% in each case.
As for `Nc1c2c(nc3ccccc13)CCCC2`, the figures for the inhibition in series [1], in series [2] and in [3] were 83%, less than 5% and less than 5%, respectively.
In the case of `NS(=O)(=O)c1cc(C(=O)O)c(NCc2ccco2)cc1Cl`, the figures for the inhibition in [1], in series [2] and in [3] were 21%, less than 5% and less than 5%, respectively.
Consider `Nc1nc(N)c2nc(-c3ccccc3)c(N)nc2n1`, for which the inhibition in [2] is less than 5%; in [3], less than 5%; in [9], 21%.
On to `CC(=O)N(O)CCCCCNC(=O)CCC(=O)N(O)CCCCCNC(=O)CCC(=O)N(O)CCCCCN`, for which the inhibition in series [1], in [2] and in series [3] was less than 5% in each case.
Regarding `CCn1nc(C(=O)O)c(=O)c2cc3c(cc21)OCO3`, the inhibition in series [2], in series [3] and in series [9] was less than 5% throughout.
By Cmax is commonly meant the peak of the concentration-time curve. The compound `COc1ccc(Cl)cc1C(=O)NCCc1ccc(S(=O)(=O)NC(=O)NC2CCCCC2)cc1` [GLYBURIDE] returned a Cmax in series [10] of 215 nM. The results for the concentration for half-maximal inhibition (IC50) in series [7] and in series [8] were 300 µM and 360 µM, respectively.
`Cc1c(OCC(F)(F)F)ccnc1C[S+]([O-])c1nc2ccccc2[nH]1` (centres undefined): the inhibition in series [1], in series [2] and in series [3] was less than 5% each time.
`Clc1ccc(COC(Cn2ccnc2)c2ccc(Cl)cc2Cl)cc1` (centres undefined) [ECONAZOLE]: the IC50 in series [7] was determined as 25 µM; in series [8], 150 µM.
Consider `Nc1cc(-c2ccncc2)c[nH]c1=O`, for which the inhibition in series [2], in [3] and in series [9] was less than 5% each time.
For the compound `COc1cc2nc(N3CCN(C(=O)c4ccco4)CC3)nc(N)c2cc1OC`, the inhibition in series [2] is less than 5%; in [5], 14%; in [3], 13%.
With `CCCC(C)(COC(N)=O)COC(=O)NC(C)C` (centres undefined), the inhibition in [1], in [2] and in [3] was less than 5% in each case.
On to `CN(C)CCN(Cc1ccccc1)c1ccccn1`, for which the inhibition in series [1], in series [2] and in [3] was less than 5% in each case.
As for `Cc1nccn1CC1CCc2c(c3ccccc3n2C)C1=O` (centres undefined), the inhibition in series [1], in [2] and in [3] was less than 5% each time.
Regarding `COc1ccc2[nH]c([S+]([O-])Cc3ncc(C)c(OC)c3C)nc2c1` (centres undefined), the inhibition in [1], in series [2] and in series [3] was less than 5% throughout.
On to `O=C(O)CCCc1ccc(N(CCCl)CCCl)cc1`, for which the inhibition is 44% in series [1], 23% in series [2] and less than 5% in [3].
The matching figures for `NC(=O)N1c2ccccc2C=Cc2ccccc21`: 8%, less than 5% and less than 5%.
For `Cc1oncc1C(=O)Nc1ccc(C(F)(F)F)cc1`, in that order: 12%, less than 5% and less than 5%.
Consider `Nc1ccc(O)c(C(=O)O)c1`, for which the inhibition was less than 5% in series [2], less than 5% in series [3] and 18% in series [4].
Regarding `Nc1nnc(-c2cccc(Cl)c2Cl)c(N)n1`, the inhibition in series [1] is 11%; in [2], less than 5%; in series [3], less than 5%.
Take `Cc1ccc(C)c(OCCCC(C)(C)C(=O)O)c1`: the inhibition in series [2] is less than 5%; in series [3], less than 5%; in [4], 14%.
For the compound `CC(C)Nc1cccnc1N1CCN(C(=O)c2cc3cc(NS(C)(=O)=O)ccc3[nH]2)CC1` [DELAVIRDINE], the results for the half-inhibitory concentration (IC50) in series [7] and in [8] were 90 µM and 225 µM, respectively.
With `COc1ccccc1OCC(O)CO` (centres undefined), the inhibition in series [1], in [2] and in [3] was less than 5% each time.
In the case of `CNCCCC1c2ccccc2C=Cc2ccccc21`, the inhibition in series [1], in [2] and in [3] was less than 5% in each case.
As for `O=C1CN(/N=C/c2ccc([N+](=O)[O-])o2)C(=O)N1`, the inhibition was 97% in series [1], 91% in series [2] and less than 5% in series [3].
Take `CC(C)C(=O)Nc1ccc([N+](=O)[O-])c(C(F)(F)F)c1`: the inhibition in [2], in [5] and in series [3] was less than 5% in each case.
As for `Nc1ccc(/N=N/c2ccccc2)c(N)n1`, the inhibition was 34% in series [1], 96% in series [2] and less than 5% in [3].
Turning to `O=C(O)CCCCCCCC(=O)O`, the inhibition in series [1] is 8%; in series [2], less than 5%; in series [3] it was less than 5%.
Regarding `CN(C)CCOC(c1ccccc1)c1ccccc1`, the inhibition in [1], in series [2] and in [3] was less than 5% in each case.
Regarding `Clc1ccc(CSC(Cn2ccnc2)c2ccc(Cl)cc2Cl)cc1` (centres undefined) [SULCONAZOLE], in [8], the IC50 turned out to be 110 µM.
As to `O=C1C(CC[S+]([O-])c2ccccc2)C(=O)N(c2ccccc2)N1c1ccccc1` (centres undefined), the inhibition in series [1] was 83%; in series [2] it was 27%; in series [3], less than 5%.
`Nc1nc2ccc(OC(F)(F)F)cc2s1`: the inhibition in series [2], in series [3] and in series [4] was less than 5% in each case.
As for `N=C(N)N/N=C/c1c(Cl)cccc1Cl`, the inhibition is 20% in series [1], less than 5% in series [2] and 83% in series [3].
Take `CCc1cccc2c3c([nH]c12)C(CC)(CC(=O)O)OCC3` (centres undefined): the inhibition in [1] is 9%; in [2], less than 5%; in series [3], less than 5%.
With `Clc1ccc(COC(Cn2ccnc2)c2ccc(Cl)cc2Cl)c(Cl)c1` (centres undefined) [MICONAZOLE], the concentration for half-maximal inhibition (IC50) in [7] was found to be 40 µM; in series [8], 125 µM.
As to `COc1ccc2c(c1)c(CC(=O)O)c(C)n2C(=O)c1ccc(Cl)cc1`, the inhibition was 7% in series [1], less than 5% in [2] and less than 5% in [3].
